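All cell lines were grown in 96-well plates and treated with compound for 48 hours. Here, GI50 denotes the concentration required for 50% inhibition of growth. Definition used: TGI = concentration required for complete inhibition of growth.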
Assays:
Assay in all cases: growth of human tumour cells (NCI), 48 h
786-0 renal = system: 786-0 renal
A498 renal = system: A498 renal
A549 NSCLC = system: A549 NSCLC
ACHN renal = system: ACHN renal
BT-549 breast = system: BT-549 breast
CAKI-1 renal = system: CAKI-1 renal
CCRF-CEM leukemia = system: CCRF-CEM leukemia
COLO 205 colon = system: COLO 205 colon
DU-145 prostate = system: DU-145 prostate
EKVX NSCLC = system: EKVX NSCLC
HCC-2998 colon = system: HCC-2998 colon
HCT-116 colon = system: HCT-116 colon
HCT-15 colon = system: HCT-15 colon
HL-60(TB) leukemia = system: HL-60(TB) leukemia
HOP-62 NSCLC = system: HOP-62 NSCLC
HOP-92 NSCLC = system: HOP-92 NSCLC
HS 578T breast = system: HS 578T breast
HT29 colon = system: HT29 colon
IGROV1 ovarian = system: IGROV1 ovarian
K-562 leukemia = system: K-562 leukemia
KM12 colon = system: KM12 colon
LOX IMVI melanoma = system: LOX IMVI melanoma
M14 melanoma = system: M14 melanoma
MALME-3M melanoma = system: MALME-3M melanoma
MCF7 breast = system: MCF7 breast
MDA-MB-231 breast = system: MDA-MB-231 breast
MDA-MB-435 = system: MDA-MB-435
MOLT-4 leukemia = system: MOLT-4 leukemia
NCI-H226 lung = system: NCI-H226 lung
NCI-H460 lung = system: NCI-H460 lung
NCI-H522 lung = system: NCI-H522 lung
NCI/ADR-RES ovarian = system: NCI/ADR-RES ovarian
OVCAR-3 ovarian = system: OVCAR-3 ovarian
OVCAR-4 ovarian = system: OVCAR-4 ovarian
OVCAR-5 ovarian = system: OVCAR-5 ovarian
OVCAR-8 ovarian = system: OVCAR-8 ovarian
PC-3 prostate = system: PC-3 prostate
RPMI-8226 leukemia = system: RPMI-8226 leukemia
RXF 393 renal = system: RXF 393 renal
SF-268 CNS = system: SF-268 CNS
SF-295 CNS = system: SF-295 CNS
SF-539 CNS = system: SF-539 CNS
SK-MEL-2 melanoma = system: SK-MEL-2 melanoma
SK-MEL-28 melanoma = system: SK-MEL-28 melanoma
SK-MEL-5 melanoma = system: SK-MEL-5 melanoma
SK-OV-3 ovarian = system: SK-OV-3 ovarian
SN12C renal = system: SN12C renal
SNB-19 CNS = system: SNB-19 CNS
SNB-75 CNS = system: SNB-75 CNS
SR leukemia = system: SR leukemia
SW-620 colon = system: SW-620 colon
T-47D breast = system: T-47D breast
TK-10 renal = system: TK-10 renal
U251 CNS = system: U251 CNS
UACC-257 melanoma = system: UACC-257 melanoma
UACC-62 melanoma = system: UACC-62 melanoma
UO-31 renal = system: UO-31 renal

## c1ccc2c(NCCCN3CCOCC3)c3oc4ccccc4c3nc2c1
786-0 renal
  GI50: 1950 nM
  TGI: 14000 nM
A498 renal
  GI50: 2010 nM
  TGI: 4410 nM
A549 NSCLC
  GI50: 1580 nM
  TGI: 12600 nM
ACHN renal
  GI50: 577 nM
  TGI: 20100 nM
BT-549 breast
  GI50: 2030 nM
  TGI: 4750 nM
CAKI-1 renal
  GI50: 1100 nM
  TGI: 11100 nM
CCRF-CEM leukemia
  GI50: 1640 nM
  TGI: 15000 nM
COLO 205 colon
  GI50: 949 nM
  TGI: 2770 nM
DU-145 prostate
  GI50: 1550 nM
  TGI: 16200 nM
EKVX NSCLC
  GI50: 2540 nM
  TGI: 13200 nM
HCC-2998 colon
  GI50: 1100 nM
  TGI: 3720 nM
HCT-116 colon
  GI50: 437 nM
  TGI: 11100 nM
HCT-15 colon
  GI50: 719 nM
  TGI: 12200 nM
HL-60(TB) leukemia
  GI50: 2340 nM
  TGI: 8590 nM
HOP-62 NSCLC
  GI50: 1670 nM
  TGI: 8180 nM
HOP-92 NSCLC
  GI50: 2100 nM
  TGI: 5820 nM
HS 578T breast
  GI50: 2080 nM
  TGI: 6990 nM
HT29 colon
  GI50: 566 nM
  TGI: 2330 nM
IGROV1 ovarian
  GI50: 2260 nM
  TGI: 12000 nM
K-562 leukemia
  GI50: 649 nM
  TGI: > 100000 nM
KM12 colon
  GI50: 1460 nM
  TGI: 15300 nM
LOX IMVI melanoma
  GI50: 568 nM
  TGI: 3230 nM
M14 melanoma
  GI50: 1660 nM
  TGI: 4110 nM
MALME-3M melanoma
  GI50: 1820 nM
  TGI: 3850 nM
MCF7 breast
  GI50: 1020 nM
  TGI: 5830 nM
MDA-MB-231 breast
  GI50: 1540 nM
  TGI: 7140 nM
MDA-MB-435
  GI50: 1260 nM
  TGI: 2610 nM
MOLT-4 leukemia
  GI50: 476 nM
  TGI: 38100 nM
NCI-H226 lung
  GI50: 1930 nM
  TGI: 5300 nM
NCI-H460 lung
  GI50: 459 nM
  TGI: 5960 nM
NCI-H522 lung
  GI50: 1280 nM
  TGI: 3150 nM
NCI/ADR-RES ovarian
  GI50: 692 nM
  TGI: 10900 nM
OVCAR-3 ovarian
  GI50: 2410 nM
  TGI: 45400 nM
OVCAR-4 ovarian
  GI50: 1240 nM
  TGI: 5140 nM
OVCAR-5 ovarian
  GI50: 1570 nM
  TGI: 7280 nM
OVCAR-8 ovarian
  GI50: 1170 nM
  TGI: 11200 nM
PC-3 prostate
  GI50: 1890 nM
  TGI: 7590 nM
RPMI-8226 leukemia
  GI50: 1720 nM
  TGI: 6280 nM
RXF 393 renal
  GI50: 1290 nM
  TGI: 3220 nM
SF-268 CNS
  GI50: 1250 nM
  TGI: 15500 nM
SF-295 CNS
  GI50: 1590 nM
  TGI: 10700 nM
SF-539 CNS
  GI50: 1500 nM
  TGI: 3460 nM
SK-MEL-2 melanoma
  GI50: 1730 nM
  TGI: 3290 nM
SK-MEL-28 melanoma
  GI50: 1880 nM
  TGI: 3790 nM
SK-MEL-5 melanoma
  GI50: 1980 nM
  TGI: 3990 nM
SK-OV-3 ovarian
  GI50: 3140 nM
  TGI: 18600 nM
SN12C renal
  GI50: 1020 nM
  TGI: 11500 nM
SNB-19 CNS
  GI50: 1870 nM
  TGI: 13100 nM
SNB-75 CNS
  GI50: 1310 nM
  TGI: 2600 nM
SR leukemia
  GI50: 599 nM
  TGI: 10100 nM
SW-620 colon
  GI50: 509 nM
  TGI: 10500 nM
T-47D breast
  GI50: 2610 nM
  TGI: 9770 nM
TK-10 renal
  GI50: 2550 nM
  TGI: 9750 nM
U251 CNS
  GI50: 1490 nM
  TGI: 11000 nM
UACC-257 melanoma
  GI50: 1940 nM
  TGI: 4080 nM
UACC-62 melanoma
  GI50: 2160 nM
  TGI: 5490 nM
UO-31 renal
  GI50: 1730 nM
  TGI: 11700 nM

— PubChem BioAssay (NCI)
